Experimental data taken from patent US12227520B2 (priority 2019, dated 2025).
Read-outs that look alike come from different tables or passages of the source.

Legend:
HIV-1 (IIIB) = assay: Antiviral assay in MT-4 cells (HIV MT-4 antiviral assay); assay type: cell-based; conditions: HIV-1 (IIIB) in MT-4 cells, 5 days incubation
Protocol: Compounds were tested in a high-throughput 384-well assay format for their ability to inhibit the replication of HIV-1 (IIIB) in MT-4 cells. Compounds were serially diluted (1:3) in DMSO on 384-well polypropylene plates and further diluted 200-fold into complete RPMI media (10% FBS, 1% P/S) using the Biotek Micro Flow and Labcyte ECHO acoustic dispenser. Each plate contained up to 8 test compounds, with negative (No Drug Control) and 5 μM AZT positive controls. MT-4 cells were pre-infected with 10 μL of either RPMI (mock-infected) or a fresh 1:250 dilution of HIV-1 IIIB concentrated virus stock. Infected and uninfected MT-4 cells were further diluted in complete RPMI media and added to each plate using a Micro Flow dispenser. After 5 days incubation in a humidified and temperature controlled incubator (37° C.), Cell Titer Glo (Promega) was added to the assay plates and chemiluminescence read using an Envision plate-reader.

[1] = Cytotoxicity assay in MT-4 cells; assay type: cell-based, human; conditions: human, uninfected MT-4 cells, 5 days incubation; read-out: CC50
Protocol: Each plate contained up to 8 test compounds, with negative (No Drug Control) and 5 μM AZT positive controls. MT-4 cells were pre-infected with 10 μL of either RPMI (mock-infected) or a fresh 1:250 dilution of HIV-1 IIIB concentrated virus stock. Infected and uninfected MT-4 cells were further diluted in complete RPMI media and added to each plate using a Micro Flow dispenser. After 5 days incubation in a humidified and temperature controlled incubator (37° C.), Cell Titer Glo (Promega) was added to the assay plates and chemiluminescence read using an Envision plate-reader. […] Assays were performed as above except uninfected MT-4 cells were added to each well containing test compound. In addition, 10 μM puromycin was added to the last column of each assay plate to assess a base level of cytotoxicity.

pLai RLuc reporter virus = assay: microbe, parasite or virus in culture; assay type: cell-based, HIV; conditions: Human immunodeficiency virus 1, 72 h
Protocol: To quantify the amount of protein binding to human serum, compounds were serially diluted (1:3) in DMSO and acoustically transferred onto 384-well assay plates via a Labcyte ECHO robot. Each plate contained up to 8 test compounds, including negative and positive controls, (DMSO, 5 μM AZT respectively). Assay plates were prepared in duplicate, and tested in either CCM (cell culture media) or HS/CCM (human serum/cell culture media). MT-4 cells were first pre-infected with pLai RLuc reporter virus for 2 h at 37° C., then further diluted in either CCM (RPMI media, 10% FBS, 1% P/S) or HS/CCM (RPMI media, 10% FBS, 50% HS, 1% P/S), and subsequently added to each plate using a Biotek Micro Flow dispenser. After a 72-h incubation in a humidified and temperature controlled incubator (37° C.), Renilla Glo (Promega) was added to all assay plates and chemiluminescence read using an Envision plate-reader. […] To determine the amount of protein binding, EC50 fold shifts (or EC50 shifts) were calculated by dividing EC50 (HS/CCM)/EC50 (CCM).

[2] = Human immunodeficiency virus 1, IIIB, MT4, 120 h, read-out: EC50

| SMILES | EC50 (HIV-1 (IIIB); [2]) [nM] | CC50 at 5 days [1] [nM] | EC50 (HIV-1 (IIIB)) [nM] | EC50 (pLai RLuc reporter virus; read-out: Antiviral Serum Shift RLuc 50% HS, HS/CCM (RPMI media, 10% FBS, 50% HS, 1% P/S), 72-h incubation) [nM] | EC50 (pLai RLuc reporter virus; read-out: Antiviral Serum Shift RLuc CCM, CCM (RPMI media, 10% FBS, 1% P/S), 72-h incubation) [nM] |
| --- | --- | --- | --- | --- | --- |
| O=C(NCc1ccc(F)c(Cl)c1F)c1cn2c(c(O)c1=O)C(=O)N1C[C@@H]2CCCc2ccccc21 [Example 97-1, (6S)—N-(3-chloro-2,4-difluorobenzyl)-1-hydroxy-2,15-dioxo-2,6,7,8,9,15-hexahydro-6,14-methanobenzo[e]pyrido[1,2-a][1,4]diazecine-3-carboxamide] | 2.85 | 6060 |  |  |  |
| O=C(NCc1ccc(F)c(Cl)c1F)c1cn2c(c(O)c1=O)C(=O)N1C[C@H]2CCc2ccc(F)cc21 [Example 90-1, (12R)—N-(3-chloro-2,4-difluorobenzyl)-3-fluoro-7-hydroxy-6,8-dioxo-6,8,13,14-tetrahydro-12H-5,12-methanobenzo[e]pyrido[1,2-a][1,4]diazonine-9-carboxamide] | 24.1 | > 32600 |  |  |  |
| Cc1noc2c1CN1C[C@H](C2)n2cc(C(=O)NCc3c(F)cc(F)cc3F)c(=O)c(O)c2C1=O (single isomer, unassigned) [Example 135-1] | 3.36 | > 50000 |  |  |  |
| CC(=O)N1CCN2CC(C1)n1cc(C(=O)NCc3ccc(F)cc3F)c(=O)c(O)c1C2=O (centres unmarked) [Example 31, 5-acetyl-N-(2,4-difluorobenzyl)-12-hydroxy-1,11-dioxo-1,4,5,6,7,11-hexahydro-3H-2,7-methanopyrido[1,2-a][1,4,7]triazonine-10-carboxamide] | > 100 | > 50000 |  |  |  |
| O=C(NCc1ccccc1)c1cn2c(c(O)c1=O)C(=O)N1CCCC[C@H]2C1 [Example 167, (7S)—N-benzyl-12-hydroxy-1,11-dioxo-1,4,5,6,7,11-hexahydro-3H-2,7-methanopyrido[1,2-a][1,4]diazonine-10-carboxamide] | 3.23 | 18700 |  |  |  |
| O=C(NCc1ccc(F)cc1F)c1cn2c(c(O)c1=O)C(=O)N1CCCC(O)C2C1 (centres unmarked) [Example 12, N-(2,4-difluorobenzyl)-6,12-dihydroxy-1,11-dioxo-1,4,5,6,7,11-hexahydro-3H-2,7-methanopyrido[1,2-a][1,4]diazonine-10-carboxamide] | 4.1 | > 50000 |  |  |  |
| O=C(NCc1c(F)cc(F)cc1F)c1cn2c(c(O)c1=O)C(=O)N1CCSC[C@H]2C1 [Example 155-2, (7R)-12-hydroxy-1,11-dioxo-N-(2,4,6-trifluorobenzyl)-1,3,4,6,7,11-hexahydro-2,7-methanopyrido[1,2-d][1,4,7]thiadiazonine-10-carboxamide] | 4.43 | > 41300 |  |  |  |
| O=C(NCc1c(F)cc(F)cc1F)c1cn2c(c(O)c1=O)C(=O)N1CCCC2CC1 (single isomer, unassigned) [Example 24-1, 11-hydroxy-1,10-dioxo-N-(2,4,6-trifluorobenzyl)-1,3,4,5,6,10-hexahydro-2,6-ethanopyrido[1,2-a][1,4]diazocine-9-carboxamide] | 10.3 | 13600 |  |  |  |
| CCC1(F)CCCN2CC1n1cc(C(=O)NCc3ccc(F)cc3F)c(=O)c(O)c1C2=O (centres unmarked) [Example 105, N-(2,4-difluorobenzyl)-6-ethyl-6-fluoro-12-hydroxy-1,11-dioxo-1,4,5,6,7,11-hexahydro-3H-2,7-methanopyrido[1,2-a][1,4]diazonine-10-carboxamide] | 1.9 | 22300 |  |  |  |
| Cn1cc2c(n1)C[C@H]1CN(C2)C(=O)c2c(O)c(=O)c(C(=O)NCc3c(F)cc(F)cc3F)cn21 [Example 87-1, (12S)-7-hydroxy-2-methyl-6,8-dioxo-N-(2,4,6-trifluorobenzyl)-2,4,6,8,12,13-hexahydro-5,12-methanopyrazolo[4,3-f]pyrido[1,2-a][1,4]diazonine-9-carboxamide] | 6.09 | > 50000 |  |  |  |
| COC1CCCN2C[C@H]1n1cc(C(=O)NCc3c(F)cc(F)cc3F)c(=O)c(O)c1C2=O (stereo partly drawn) [Example 99-2, (7R)-12-hydroxy-6-methoxy-1,11-dioxo-N-(2,4,6-trifluorobenzyl)-1,4,5,6,7,11-hexahydro-3H-2,7-methanopyrido[1,2-a][1,4]diazonine-10-carboxamide] | 3.02 | > 23400 |  |  |  |
| O=C(NCc1ccc(F)cc1Cl)c1cn2c(c(O)c1=O)C(=O)N1CCCC[C@H]2C1 [Example 152, (7S)—N-(2-chloro-4-fluoro-benzyl)-12-hydroxy-1,11-dioxo-1,4,5,6,7,11-hexahydro-3H-2,7-methanopyrido[1,2-a][1,4]diazonine-10-carboxamide] | 4.05 | 12000 |  |  |  |
| O=C(NCc1c(F)cc(F)cc1F)c1cn2c(c(O)c1=O)C(=O)N1CCc3ccccc3[C@@H]2C1 (single isomer, unassigned) [Example 63-2] | 8.14 | 14300 |  |  |  |
| CCC1CCCN2CC1n1cc(C(=O)NCc3ccc(F)cc3F)c(=O)c(O)c1C2=O (centres unmarked) [Example 106, N-(2,4-difluorobenzyl)-6-ethyl-12-hydroxy-1,11-dioxo-1,4,5,6,7,11-hexahydro-3H-2,7-methanopyrido[1,2-a][1,4]diazonine-10-carboxamide] | 2.32 | 6840 |  |  |  |
| O=C(NCc1ccc(F)cc1F)c1cn2c(c(O)c1=O)C(=O)N1CC2CCc2cc(F)ccc21 (single isomer, unassigned) [Example 55-1] |  | 13000 | > 89.4 |  |  |
| O=C(NCc1cccc(Cl)c1F)c1cn2c(c(O)c1=O)C(=O)N1Cc3cc(F)c(F)cc3C[C@H]2C1 [Example 143-2, (6S)—N-(3-chloro-2-fluorobenzyl)-9,10-difluoro-1-hydroxy-2,14-dioxo-2,7,12,14-tetrahydro-6H-6,13-methanobenzo[f]pyrido[1,2-a][1,4]diazonine-3-carboxamide] | 12.8 | > 50000 |  |  |  |
| O=C(NCc1c(F)cc(F)cc1F)c1cn2c(c(O)c1=O)C(=O)N1C[C@@H]2CCc2cc(Cl)ccc21 [Example 48-1, (12S)-2-chloro-7-hydroxy-6,8-dioxo-N-(2,4,6-trifluorobenzyl)-6,8,13,14-tetrahydro-12H-5,12-methanobenzo[e]pyrido[1,2-a][1,4]diazonine-9-carboxamide] | > 34 | > 13800 |  |  |  |
| O=C(NCc1c(F)cc(F)cc1F)c1cn2c(c(O)c1=O)C(=O)N1CCc3cc(Cl)ccc3[C@H]2C1 [Example 136-1, (13S)-10-chloro-4-hydroxy-3,5-dioxo-N-(2,4,6-trifluorobenzyl)-3,5,8,13-tetrahydro-7H-6,13-methanobenzo[g]pyrido[1,2-a][1,4]diazonine-2-carboxamide] | 39.9 | 12400 |  |  |  |
| O=C(NCc1ccc(F)cc1F)c1cn2c(c(O)c1=O)C(=O)N1CCCC(F)C2C1 (centres unmarked) [Example 13, N-(2,4-difluorobenzyl)-6-fluoro-12-hydroxy-1,11-dioxo-1,4,5,6,7,11-hexahydro-3H-2,7-methanopyrido[1,2-a][1,4]diazonine-10-carboxamide] | 1.3 | 17200 |  |  |  |
| COc1cccc(CNC(=O)c2cn3c(c(O)c2=O)C(=O)N2CCCC[C@H]3C2)c1F [Example 54] | 36 | 1460 |  |  |  |
| O=C(NCc1ccc(F)cc1F)c1cn2c(c(O)c1=O)C(=O)N1C[C@H]2CCc2ccccc21 (single isomer, unassigned) [Example 37-1] | 21.4 | 10500 |  |  |  |
| O=C(NCc1c(F)cc(F)cc1F)c1cn2c(c(O)c1=O)C(=O)N1CC=C(F)C[C@H]2C1 [Example 133, (7S)-5-fluoro-12-hydroxy-1,11-dioxo-N-(2,4,6-trifluorobenzyl)-1,6,7,11-tetrahydro-3H-2,7-methanopyrido[1,2-a][1,4]diazonine-10-carboxamide] |  |  |  | 1.66 | 0.533 |
